Data on four molecules can be found in US20250042864A1, “SOLID STATE FORM OF TAFAMIDIS” (TEVA PHARMACEUTICALS INTERNATIONAL GMBH, priority 2021, published 2025).

≈ marks a conversion by molar mass, not a printed value.

The term solubility denotes the concentration that dissolves in the medium under given conditions. Low values mean little dissolved substance, high ones much dissolved substance.

Holding throughout (type): physicochemical
Series [1] can be described thus: water solubility of crystalline forms of tafamidis.
Series [2] is described as follows: stability to suspension (slurry) in PEG 400 at room temperature, analysed by XRPD. The following applies: slurry in PEG 400, room temperature, XRPD (FIG. 6). The protocol: 50 mg of samples of Form Va and Form 4 were placed into glass vials. 1 ml of PEG 400 was added at room temperature. The slurries were each mixed using a magnetic stirrer. The resulting samples were analysed by XRPD after 2 hours and after 7 days.

Series [3] in a line: particle size / morphology of crystalline forms. The following applies: morphology comparison of crystalline forms.

With `O=C(O)c1ccc2nc(-c3cc(Cl)cc(Cl)c3)oc2c1` [Form Va, 2-(3,5-dichlorophenyl)-1,3-benzoxazole-6-carboxylic acid], the solubility in series [1] was 2.21 µg/mL (≈ 7.17 µM). The “time for which the form is stable in PEG 400 slurry” value in series [2] was “at least 7 days”. In addition, in series [3], the particle size is listed as 5-10 μm.

For the molecule `O=C(O)c1ccc2nc(-c3cc(Cl)cc(Cl)c3)oc2c1` [Form V, 2-(3,5-dichlorophenyl)-1,3-benzoxazole-6-carboxylic acid], the water solubility in series [1] turned out to be 1.47 µg/mL (≈ 4.77 µM).

Regarding `O=C(O)c1ccc2nc(-c3cc(Cl)cc(Cl)c3)oc2c1` [Form 1, 2-(3,5-dichlorophenyl)-1,3-benzoxazole-6-carboxylic acid], the particle size entry in series [3] was “up to 100 μm”.

Consider `O=C(O)c1ccc2nc(-c3cc(Cl)cc(Cl)c3)oc2c1` [Form 6, 2-(3,5-dichlorophenyl)-1,3-benzoxazole-6-carboxylic acid], for which the particle size in series [3] is given as > 100 μm.
